# Results from ChEMBL document CHEMBL5331108, “Design and Synthesis of 4-Fluorophenyl-5-methylene-2(5H)-furanone Derivatives as Potent Quorum Sensing Inhibitors” (J Med Chem, 2023).
# System: Bacillus subtilis
# Assay: Antibacterial activity against penicillin-susceptible Bacillus subtilis ATCC9372 assessed as inhibition of bacterial growth incubated for 20 hrs by CLSI protocol based microdilution method
# Format: functional
row,SMILES,MIC [µg/mL]
1,C=C1OC(=O)C(CNC(=O)c2ccc(C)cc2)=C1c1cccc(C(F)(F)F)c1,> 512
2,C=C1OC(=O)C(CNC(=O)CCCCC)=C1c1ccc(F)cc1,256
3,C=C1OC(=O)C(CNC(=O)c2ccc(C)cc2)=C1c1ccc(Cl)cc1,> 512
4,C=C1OC(=O)C(CNC(=O)CCCCCCCC)=C1c1ccc(F)cc1,> 512
5,C=C1C(c2ccc(F)cc2)=C(CNC(=O)c2ccc(C)cc2)C(=O)N1c1ccccc1Cl,> 512
6,C=C1OC(=O)C(CNC(=O)c2ccccc2Cl)=C1c1ccc(F)cc1,> 512
7,C=C1OC(=O)C(CNC(=O)c2ccc(C)cc2)=C1c1ccccc1Br,> 512
8,C=C1OC(=O)C(CNC(=O)CCCC)=C1c1ccc(F)cc1,32
9,C=C1C(c2ccc(F)cc2)=C(CNC(=O)c2ccc(C)cc2)C(=O)N1CC,> 512
10,C=C1OC(=O)C(CNC(=O)CC)=C1c1ccc(F)cc1,512
11,C=C1OC(=O)C(CNC(=O)c2ccccc2OC)=C1c1ccc(F)cc1,> 512
12,C=C1OC(=O)C(CNC(=O)c2ccccc2Br)=C1c1ccc(F)cc1,16
13,C=C1OC(=O)C(CNC(=O)c2cccc(Br)c2)=C1c1ccc(F)cc1,> 512
14,C=C1OC(=O)C(CNC(=O)c2ccc(C)cc2)=C1c1ccccc1,> 512

# System: Bacillus pumilus
# Assay: Antibacterial activity against penicillin-susceptible Bacillus pumilus CMCC63202 assessed as inhibition of bacterial growth incubated for 20 hrs by CLSI protocol based microdilution method
# Format: functional
row,SMILES,MIC [µg/mL]
1,C=C1OC(=O)C(CNC(=O)c2ccc(C)cc2)=C1c1cccc(C(F)(F)F)c1,> 512
2,C=C1OC(=O)C(CNC(=O)CCCCC)=C1c1ccc(F)cc1,256
3,C=C1OC(=O)C(CNC(=O)c2ccc(C)cc2)=C1c1ccc(Cl)cc1,> 512
4,C=C1OC(=O)C(CNC(=O)CCCCCCCC)=C1c1ccc(F)cc1,> 512
5,C=C1C(c2ccc(F)cc2)=C(CNC(=O)c2ccc(C)cc2)C(=O)N1c1ccccc1Cl,512
6,C=C1OC(=O)C(CNC(=O)c2ccccc2Cl)=C1c1ccc(F)cc1,> 512
7,C=C1OC(=O)C(CNC(=O)c2ccc(C)cc2)=C1c1ccccc1Br,> 512
8,C=C1OC(=O)C(CNC(=O)CCCC)=C1c1ccc(F)cc1,16
9,C=C1C(c2ccc(F)cc2)=C(CNC(=O)c2ccc(C)cc2)C(=O)N1CC,512
10,C=C1OC(=O)C(CNC(=O)CC)=C1c1ccc(F)cc1,256
11,C=C1OC(=O)C(CNC(=O)c2ccccc2OC)=C1c1ccc(F)cc1,> 512
12,C=C1OC(=O)C(CNC(=O)c2ccccc2Br)=C1c1ccc(F)cc1,> 512
13,C=C1OC(=O)C(CNC(=O)c2cccc(Br)c2)=C1c1ccc(F)cc1,> 512
14,C=C1OC(=O)C(CNC(=O)c2ccc(C)cc2)=C1c1ccccc1,> 512

# System: Staphylococcus aureus
# Assay: Antibacterial activity against erthromycin-susceptible Staphylococcus aureus ATCC25923 assessed as inhibition of bacterial growth incubated for 20 hrs by CLSI protocol based microdilution method
# Format: functional
row,SMILES,MIC [µg/mL]
1,C=C1OC(=O)C(CNC(=O)c2ccc(C)cc2)=C1c1cccc(C(F)(F)F)c1,> 512
2,C=C1OC(=O)C(CNC(=O)CCCCC)=C1c1ccc(F)cc1,16
3,C=C1OC(=O)C(CNC(=O)c2ccc(C)cc2)=C1c1ccc(Cl)cc1,> 512
4,C=C1OC(=O)C(CNC(=O)CCCCCCCC)=C1c1ccc(F)cc1,> 512
5,C=C1C(c2ccc(F)cc2)=C(CNC(=O)c2ccc(C)cc2)C(=O)N1c1ccccc1Cl,> 512
6,C=C1OC(=O)C(CNC(=O)c2ccccc2Cl)=C1c1ccc(F)cc1,> 512
7,C=C1OC(=O)C(CNC(=O)c2ccc(C)cc2)=C1c1ccccc1Br,> 512
8,C=C1OC(=O)C(CNC(=O)CCCC)=C1c1ccc(F)cc1,4
9,C=C1C(c2ccc(F)cc2)=C(CNC(=O)c2ccc(C)cc2)C(=O)N1CC,> 512
10,C=C1OC(=O)C(CNC(=O)CC)=C1c1ccc(F)cc1,128
11,C=C1OC(=O)C(CNC(=O)c2ccccc2OC)=C1c1ccc(F)cc1,> 512
12,C=C1OC(=O)C(CNC(=O)c2ccccc2Br)=C1c1ccc(F)cc1,> 512
13,C=C1OC(=O)C(CNC(=O)c2cccc(Br)c2)=C1c1ccc(F)cc1,> 512
14,C=C1OC(=O)C(CNC(=O)c2ccc(C)cc2)=C1c1ccccc1,> 512

# System: Staphylococcus aureus
# Assay: Antibacterial activity against methicillin-resistant Staphylococcus aureus ATCC43300 assessed as inhibition of bacterial growth incubated for 20 hrs by CLSI protocol based microdilution method
# Format: functional
row,SMILES,MIC [µg/mL]
1,C=C1OC(=O)C(CNC(=O)c2ccc(C)cc2)=C1c1cccc(C(F)(F)F)c1,> 512
2,C=C1OC(=O)C(CNC(=O)CCCCC)=C1c1ccc(F)cc1,256
3,C=C1OC(=O)C(CNC(=O)c2ccc(C)cc2)=C1c1ccc(Cl)cc1,> 512
4,C=C1OC(=O)C(CNC(=O)CCCCCCCC)=C1c1ccc(F)cc1,> 512
5,C=C1C(c2ccc(F)cc2)=C(CNC(=O)c2ccc(C)cc2)C(=O)N1c1ccccc1Cl,> 512
6,C=C1OC(=O)C(CNC(=O)c2ccccc2Cl)=C1c1ccc(F)cc1,> 512
7,C=C1OC(=O)C(CNC(=O)c2ccc(C)cc2)=C1c1ccccc1Br,> 512
8,C=C1OC(=O)C(CNC(=O)CCCC)=C1c1ccc(F)cc1,32
9,C=C1C(c2ccc(F)cc2)=C(CNC(=O)c2ccc(C)cc2)C(=O)N1CC,> 512
10,C=C1OC(=O)C(CNC(=O)CC)=C1c1ccc(F)cc1,256
11,C=C1OC(=O)C(CNC(=O)c2ccccc2OC)=C1c1ccc(F)cc1,> 512
12,C=C1OC(=O)C(CNC(=O)c2ccccc2Br)=C1c1ccc(F)cc1,8
13,C=C1OC(=O)C(CNC(=O)c2cccc(Br)c2)=C1c1ccc(F)cc1,> 512
14,C=C1OC(=O)C(CNC(=O)c2ccc(C)cc2)=C1c1ccccc1,> 512

# System: Pseudomonas aeruginosa
# Assay: Antibacterial activity against penicillin-susceptible Pseudomonas aeruginosa ATCC27853 assessed as inhibition of bacterial growth incubated for 20 hrs by CLSI protocol based microdilution method
# Format: functional
row,SMILES,MIC [µg/mL]
1,C=C1OC(=O)C(CNC(=O)c2ccc(C)cc2)=C1c1cccc(C(F)(F)F)c1,> 512
2,C=C1OC(=O)C(CNC(=O)CCCCC)=C1c1ccc(F)cc1,> 512
3,C=C1OC(=O)C(CNC(=O)c2ccc(C)cc2)=C1c1ccc(Cl)cc1,> 512
4,C=C1OC(=O)C(CNC(=O)CCCCCCCC)=C1c1ccc(F)cc1,> 512
5,C=C1C(c2ccc(F)cc2)=C(CNC(=O)c2ccc(C)cc2)C(=O)N1c1ccccc1Cl,> 512
6,C=C1OC(=O)C(CNC(=O)c2ccccc2Cl)=C1c1ccc(F)cc1,> 512
7,C=C1OC(=O)C(CNC(=O)c2ccc(C)cc2)=C1c1ccccc1Br,> 512
8,C=C1OC(=O)C(CNC(=O)CCCC)=C1c1ccc(F)cc1,> 512
9,C=C1C(c2ccc(F)cc2)=C(CNC(=O)c2ccc(C)cc2)C(=O)N1CC,64
10,C=C1OC(=O)C(CNC(=O)CC)=C1c1ccc(F)cc1,> 512
11,C=C1OC(=O)C(CNC(=O)c2ccccc2OC)=C1c1ccc(F)cc1,> 512
12,C=C1OC(=O)C(CNC(=O)c2ccccc2Br)=C1c1ccc(F)cc1,> 512
13,C=C1OC(=O)C(CNC(=O)c2cccc(Br)c2)=C1c1ccc(F)cc1,> 512
14,C=C1OC(=O)C(CNC(=O)c2ccc(C)cc2)=C1c1ccccc1,> 512

# System: Escherichia coli
# Assay: Antibacterial activity against penicillin-susceptible Escherichia coli ATCC25922 assessed as inhibition of bacterial growth incubated for 20 hrs by CLSI protocol based microdilution method
# Format: functional
row,SMILES,MIC [µg/mL]
1,C=C1OC(=O)C(CNC(=O)c2ccc(C)cc2)=C1c1cccc(C(F)(F)F)c1,> 512
2,C=C1OC(=O)C(CNC(=O)CCCCC)=C1c1ccc(F)cc1,> 512
3,C=C1OC(=O)C(CNC(=O)c2ccc(C)cc2)=C1c1ccc(Cl)cc1,> 512
4,C=C1OC(=O)C(CNC(=O)CCCCCCCC)=C1c1ccc(F)cc1,> 512
5,C=C1C(c2ccc(F)cc2)=C(CNC(=O)c2ccc(C)cc2)C(=O)N1c1ccccc1Cl,> 512
6,C=C1OC(=O)C(CNC(=O)c2ccccc2Cl)=C1c1ccc(F)cc1,> 512
7,C=C1OC(=O)C(CNC(=O)c2ccc(C)cc2)=C1c1ccccc1Br,> 512
8,C=C1OC(=O)C(CNC(=O)CCCC)=C1c1ccc(F)cc1,> 512
9,C=C1C(c2ccc(F)cc2)=C(CNC(=O)c2ccc(C)cc2)C(=O)N1CC,> 512
10,C=C1OC(=O)C(CNC(=O)CC)=C1c1ccc(F)cc1,> 512
11,C=C1OC(=O)C(CNC(=O)c2ccccc2OC)=C1c1ccc(F)cc1,> 512
12,C=C1OC(=O)C(CNC(=O)c2ccccc2Br)=C1c1ccc(F)cc1,> 512
13,C=C1OC(=O)C(CNC(=O)c2cccc(Br)c2)=C1c1ccc(F)cc1,> 512
14,C=C1OC(=O)C(CNC(=O)c2ccc(C)cc2)=C1c1ccccc1,> 512

# System: Pseudomonas aeruginosa
# Assay: Antibacterial activity against wild type Pseudomonas aeruginosa […] CGMCC1.12483 assessed as inhibition of bacterial growth incubated for 20 hrs by CLSI protocol based microdilution method
# Format: functional
row,SMILES,MIC [µg/mL]
1,C=C1OC(=O)C(CNC(=O)c2ccc(C)cc2)=C1c1cccc(C(F)(F)F)c1,> 512
2,C=C1OC(=O)C(CNC(=O)CCCCC)=C1c1ccc(F)cc1,> 512
3,C=C1OC(=O)C(CNC(=O)c2ccc(C)cc2)=C1c1ccc(Cl)cc1,> 512
4,C=C1OC(=O)C(CNC(=O)CCCCCCCC)=C1c1ccc(F)cc1,> 512
5,C=C1C(c2ccc(F)cc2)=C(CNC(=O)c2ccc(C)cc2)C(=O)N1c1ccccc1Cl,512
6,C=C1OC(=O)C(CNC(=O)c2ccccc2Cl)=C1c1ccc(F)cc1,> 512
7,C=C1OC(=O)C(CNC(=O)c2ccc(C)cc2)=C1c1ccccc1Br,> 512
8,C=C1OC(=O)C(CNC(=O)CCCC)=C1c1ccc(F)cc1,> 512
9,C=C1C(c2ccc(F)cc2)=C(CNC(=O)c2ccc(C)cc2)C(=O)N1CC,512
10,C=C1OC(=O)C(CNC(=O)CC)=C1c1ccc(F)cc1,512
11,C=C1OC(=O)C(CNC(=O)c2ccccc2OC)=C1c1ccc(F)cc1,> 512
12,C=C1OC(=O)C(CNC(=O)c2ccccc2Br)=C1c1ccc(F)cc1,> 512
13,C=C1OC(=O)C(CNC(=O)c2cccc(Br)c2)=C1c1ccc(F)cc1,> 512
14,C=C1OC(=O)C(CNC(=O)c2ccc(C)cc2)=C1c1ccccc1,> 512
